In US20060247271A1, “Sulphonyl hydroxamic acid derivatives as inhibitors of s-cd23” (priority 2003, published 2006):

Columns and labels:
[1] = test system: release of soluble CD23 (RPMI 8866 cell plasma membranes); assay: RPMI 8866 cell membrane CD23 cleavage activity assay; format: biochemical, human; settings: RPMI 8866 plasma membranes, 37° C., sCD23 by EIA; read-out: IC50, inhibition of production of sCD23
Description: Procedure 1: The ability of test compounds to inhibit the release of soluble CD23 was investigated by use of the following procedure.
RPMI 8866 Cell Membrane CD23 Cleavage Activity Assay:
Plasma membranes from RPMI 8866 cells, a human Epstein-Barr virus transformed B-cell line (Sarfati et al., Immunology 60 [1987] 539-547) expressing high levels of CD23 are purified using an aqueous extraction method. Cells resuspended in homogenization buffer (20 mM HEPES pH 7.4, 150 mM NaCl, 1.5 mM MgCl2, 1 mM DTT) are broken by N2 cavitation in a Parr bomb and the plasma membrane fraction mixed with other membranes is recovered by centrifugation at 10,000×g. […]
The fractionated membranes are incubated at 37° C. for times up to 4 hrs to produce fragments of CD23 which are separated from the membrane by filtration in 0.2 micron Durapore filter plates (Millipore) after quenching the assay with 5 uM Preparation 1 from WO 95/31457 ([4-(N-Hydroxyamino)-2-(R)-isobutyl-3-(S)-(2-thiophenethiomethyl)succinyl]-(S)-phenylalanine—methylamide sodium salt, prepared according to the procedure descibed in Example 11 of WO 90/05719). sCD23 released from the membrane is determined using the EIA kit from The Binding Site (Birmingham, UK) or a similar one utilising MHM6 anti-CD23 mAb [Rowe et al., Int. […]

MMP-13 = molecular target: T1, MMP-13 (Homo sapiens, UniProt P45452); assay: General MMP inhibition fluorescence quench assay, MMP-13; format: biochemical; settings: room temperature
T1 construct: purchased Calbiochem
Description: (§1) General MMP Inhibition Assays:
(§2) Inhibition of matrix metalloprotease activity was determined using a fluorescence quench assay with appropriate substrate. For example, MMP activity was determined using MMP activated using trypsin, according to Lark et al, Connective Tissue Res. 25, 52 (1990). The MMP is incubated at room temperature in a microtitre plate in a total volume of 100 ul, containing 0.15 M Tris Cl, 15 mM CaCl2, 0.2 M NaCl, pH 7.6 (assay buffer); inhibitor at concentrations up to 100 uM, with no more than 2% DMSO final concentration, 10 uM substrate (such as SDP-3815-PI for MMP-1, Peptides International). The MMP concentration is <10 nM, and determined empirically with the appropriate substrate to give at least a 20-fold increase in fluorescence emission in 30 min. Fluorescent excitation wavelength was 355 nm, emission wavelength 400-460 nm, and data points are collected to generate slope (change in fluorescence with time). Percent inhibition for each concentration is calculated from the slope at time zero, and IC50 values from the concentration dependence. MMP-1, 2, 3, 7, 9, 13, 14 may all be assayed in the same manner, using commercially available substrates reported to be effective for each enzyme. Enzymes were obtained from Calbiochem and activated using the same trypsin method.

[2] = molecular target: T2, human recombinant collagenase (Homo sapiens, UniProt P03956); assay: Collagenase inhibition assay; format: biochemical; settings: 37° C., 18 h, acetylated 3H type 1 bovine collagen
T2 construct: made in house; host or cells: E. coli
T2 sequence (P03956 100-469): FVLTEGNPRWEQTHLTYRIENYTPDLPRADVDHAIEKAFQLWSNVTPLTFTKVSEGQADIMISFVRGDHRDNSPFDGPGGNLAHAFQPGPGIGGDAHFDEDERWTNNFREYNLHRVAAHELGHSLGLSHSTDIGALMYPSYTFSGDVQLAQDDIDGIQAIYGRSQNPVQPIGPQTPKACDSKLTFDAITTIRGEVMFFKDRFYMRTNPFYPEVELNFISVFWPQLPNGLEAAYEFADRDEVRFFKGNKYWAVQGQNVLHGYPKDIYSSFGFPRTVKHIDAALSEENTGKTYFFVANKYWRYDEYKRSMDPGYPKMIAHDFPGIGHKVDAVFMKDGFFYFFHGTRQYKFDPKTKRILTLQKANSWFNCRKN
Description: Procedure 2: The ability of test compounds to inhibit matrix metalloproteases was investigated using the following procedures.
Collagenase Inhibition Assay:
The potency of compounds to act as inhibitors of collagenase was determined by the method of Cawston and Barrett (Anal. Biochem. 99, 340-345, 1979), hereby incorporated by reference, whereby a 1 mM solution of the inhibitor being tested or dilutions thereof, was incubated at 37° C. for 18 h with collagen and human recombinant collagenase, from synovial fibroblasts cloned, expressed and purified from E. Coli, (buffered with 150 mM Tris, pH 7.6, containing 15 mM calcium chloride, 0.05% Brij 35, 200 mM sodium chloride and 0.02% sodium azide). The collagen was acetylated ^3H type 1 bovine collagen prepared by the method of Cawston and Murphy (methods in Enzymology 80, 711,1981) The samples were centrifuged to sediment undigested collagen and an aliquot of the radioactive supernatant removed for assay on a scintillation counter as a measure of hydrolysis. The collagenase activity in the presence of 1 mM inhibitor, or dilution thereof, was compared to activity in a control devoid of inhibitor and the results reported as that concentration effecting 50% of the collagenase (IC50).

MMP-3 = molecular target: T3, MMP-3 (Homo sapiens, UniProt P08254); assay: General MMP inhibition fluorescence quench assay, MMP-3; format: biochemical; settings: room temperature
T3 construct: purchased Calbiochem
Description: as §1, §2

T3 sequence (P08254 100-477, species assumed): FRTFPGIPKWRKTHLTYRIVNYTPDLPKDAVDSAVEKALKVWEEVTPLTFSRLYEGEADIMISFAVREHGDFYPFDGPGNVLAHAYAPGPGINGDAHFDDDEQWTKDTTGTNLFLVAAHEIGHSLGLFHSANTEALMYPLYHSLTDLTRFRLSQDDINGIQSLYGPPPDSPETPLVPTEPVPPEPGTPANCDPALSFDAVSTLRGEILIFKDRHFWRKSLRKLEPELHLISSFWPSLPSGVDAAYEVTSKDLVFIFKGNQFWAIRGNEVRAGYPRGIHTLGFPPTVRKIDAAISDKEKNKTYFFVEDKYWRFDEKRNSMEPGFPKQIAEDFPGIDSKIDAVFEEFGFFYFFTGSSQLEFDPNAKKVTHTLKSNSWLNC

SMILES | IC50 [1] [µM] | IC50 (MMP-13) [µM] | IC50 [2] [µM] | IC50 (MMP-3) [µM]
CCCO[C@@H](CS(=O)(=O)Cc1cnc2ccccc2c1)C(=O)NO [Example 2, (R)—N-Hydroxy-2-propoxy-3-(quinolin-3-ylmethanesulfonyl)-propionamide] | 0.11 | 7 |  | 
O=C(NO)C(CS(=O)(=O)Cc1cnc2ccccc2c1)c1ccccc1 (centres unmarked) [Example 1, N-Hydroxy-2-phenyl-3-(3-quinolylmethanesulfonyl)-propionamide] | 0.01 |  | > 10 | > 10
